Measurements reported in PubChem BioAssay (NCI).
Where “and” joins values, the source holds several entries; their conditions need not be identical. Equal values may be shown once.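 The compound was tested at five concentrations on cells cultured in 96-well plates, with a 48-hour exposure period. GI50 marks 50% less growth. TGI: concentration producing complete growth inhibition.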

Columns and labels:
Assay in all cases: inhibition of tumour cell growth, NCI panel, 48 h
SW-620 colon = system: SW-620 colon
SK-OV-3 ovarian = system: SK-OV-3 ovarian
HOP-92 NSCLC = system: HOP-92 NSCLC
UACC-257 melanoma = system: UACC-257 melanoma
OVCAR-3 ovarian = system: OVCAR-3 ovarian
OVCAR-8 ovarian = system: OVCAR-8 ovarian
SK-MEL-5 melanoma = system: SK-MEL-5 melanoma
HOP-62 NSCLC = system: HOP-62 NSCLC
ACHN renal = system: ACHN renal
M14 melanoma = system: M14 melanoma

Row | Structure (SMILES) | TGI (SW-620 colon) | TGI (SK-OV-3 ovarian) | TGI (HOP-92 NSCLC) | TGI (UACC-257 melanoma) | TGI (OVCAR-3 ovarian) | TGI (OVCAR-8 ovarian) | TGI (SK-MEL-5 melanoma) | TGI (HOP-62 NSCLC) | TGI (ACHN renal) [µM] | TGI (M14 melanoma) | GI50 (SW-620 colon) [µM] | GI50 (SK-OV-3 ovarian) [µM] | GI50 (HOP-92 NSCLC) [µM] | GI50 (UACC-257 melanoma) [µM] | GI50 (OVCAR-3 ovarian) [µM] | GI50 (OVCAR-8 ovarian) [µM] | GI50 (SK-MEL-5 melanoma) [µM] | GI50 (HOP-62 NSCLC) [µM] | GI50 (ACHN renal) [µM] | GI50 (M14 melanoma) [µM]
1 | Cc1ccc(S(=O)(=O)NC(=O)OC23COCN2COC3)cc1 | > 100 µM | > 100 µM | > 100 µM | > 100 µM | > 100 µM | > 100 µM | > 100 µM | > 100 µM | > 100 | > 100 µM | – | – | – | – | – | – | – | – | – | –
2 | CN1CCCC1c1cccnc1.O=C(O)c1ccccc1O.O=C([O-])c1ccccc1[OH2+].O=C([O-])c1ccccc1[OH2+].[Mn+2] (stereo not given) | > 100 µM | > 100 µM | > 100 µM | > 100 µM | 70.5 µM | > 100 µM | > 100 µM | > 100 µM | > 100 | > 100 µM | 64.3 | > 100 | > 100 | 56.7 | 21.3 | > 100 | > 100 | > 100 | > 100 | > 100
3 | C/C(=N\NC(=S)N1CCN(c2ccccn2)CC1)c1ncccn1 | 5.18 µM and 17.8 µM | 4.47 µM and 13 µM | 5.91 µM and 3.08 µM | 1.42 µM and 4.27 µM | 7.5 µM and 15.3 µM | 5.4 µM and 16.4 µM | 3.2 µM and 14.9 µM | 2.09 µM and 7.05 µM | 12.1 | 6.06 µM and 2.61 µM | 0.038 | 0.0884 | 0.208 | 0.0339 | 0.213 | 0.0154 | 0.269 | 0.0865 | 0.0871 | 0.0938
4 | C[C@@H](NC(=O)c1ccc(F)cc1)c1ccc2c(c1)CCN2C(=O)C1CCOCC1 | > 100 µM | > 100 µM | > 100 µM | > 100 µM | > 100 µM | > 100 µM | > 100 µM | > 100 µM | > 100 | > 100 µM | > 100 | > 100 | > 100 | > 100 | > 100 | > 100 | > 100 | > 100 | > 100 | > 100
5 | N#CC1C(N)=NNC12Nc1ccccc1S2 (stereo not given) | > 100 µM | > 100 µM | > 100 µM | 44.4 µM | 43.9 µM | 61.1 µM | 28.7 µM | > 100 µM | 53.3 | 40.5 µM | 31.2 | 25.9 | 34.7 | 13.6 | 10.3 | 13 | 8.93 | 30.3 | 20.1 | 15.3
6 | COc1ccc(OC)c(Cc2cnc3nc(N)nc(N)c3c2C)c1 | > 45.1 µM | 27.2 µM | 39.6 µM | 47.4 µM | 10.9 µM | 27.8 µM | 93.8 µM | 17.3 µM | 20.1 | > 41.9 µM | – | – | – | – | – | – | – | – | – | –
7 | O=c1[nH]c(=S)[nH]c(-c2ccccc2)c1Cc1c(O)ccc2ccccc12 | > 100 µM | > 100 µM | > 100 µM | 62.7 µM | > 100 µM | > 100 µM | 43.8 µM | > 100 µM | > 100 | 78.5 µM | – | – | – | – | – | – | – | – | – | –
8 | COc1ccc(/C=N\Nc2nc(SCC(C)C)nc(-c3ccc(OC)cc3)c2C#N)cc1 | > 100 µM | 14.6 µM | 14.1 µM | 35.7 µM | 21.1 µM | 29.8 µM | 51.2 µM | 10.8 µM | 2.37 | 92.2 µM | 5.15 | 1.46 | 2.39 | 3.35 | 6.71 | 5.3 | 13.6 | 0.414 | 0.71 | 13
9 | Cc1cc(O)c2c3c(ccc2c1)C(=O)c1c(O)cccc1C3=O | > 100 µM | > 100 µM | > 100 µM | > 100 µM | 3.45 µM | > 100 µM | 1.4 µM | > 100 µM | > 100 | > 26.2 µM | – | – | – | – | – | – | – | – | – | –
10 | CCN(Cc1ccc(F)cc1)c1ccc(CO)c(C(F)(F)F)c1 | 23.5 µM | 30.8 µM | 17.8 µM | 7.01 µM | 19.6 µM | 27.3 µM | 26.8 µM | 21.2 µM | 27.8 | 30.9 µM | 11.2 | 15.8 | 2.29 | 1.76 | 6.91 | 14.3 | 13.9 | 9.23 | 14.6 | 15.1
11 | c1ccc(C2CCCCC2)c(OCCCCCN2CCNCC2)c1 | 3.8 µM | 21.8 µM | 23 µM | 4.92 µM | 11.1 µM | 43 µM | 2.81 µM | 28.5 µM | 13.2 | 3.89 µM | 1.82 | 6.51 | 4.44 | 2.35 | 2.74 | 13.4 | 1.45 | 10.4 | 3.45 | 1.86
12 | COC1=C(OC)[C@]2(OC)c3c(O)c(OC)c4c(c3O[C@@]23O[C@@H](c2ccccc2)CC=C3C1=O)[C@@H](OC)C[C@H](c1ccccc1)O4 | 0.933 µM | 3.56 µM | 2.55 µM | 2.17 µM | 0.72 µM | 2.62 µM | 1.96 µM | 5.61 µM | 1.81 | 1.86 µM | 0.178 | 1.91 | 1.24 | 0.814 | 0.255 | 0.451 | 0.739 | 2.33 | 0.605 | 0.516
13 | COc1cc2c(cc1NC(=O)C(Cl)Cl)-c1ccc(NC(=O)C(Cl)Cl)cc1C2 | 0.935 µM | 20.6 µM | 3.54 µM | 3.54 µM | 1.25 µM | 1.68 µM | 18.3 µM | 1.64 µM | 0.971 | 16.5 µM | 0.264 | 6.67 | 1.15 | 1.02 | 0.569 | 0.439 | 4.35 | 0.587 | 0.268 | 3.14
14 | CN1C(=NCCO)NS(=O)(=O)c2ccccc21 | > 100 µM | > 100 µM | > 100 µM | > 100 µM | > 100 µM | > 100 µM | > 100 µM | > 100 µM | > 100 | > 100 µM | – | – | – | – | – | – | – | – | – | –
